Assay results published in the NIST ThermoML archive (doi:10.1016/j.jct.2004.10.011).

Experiment: xn = mol fraction of the nth substance listed
Conditions: Liquid, Vibrating tube method, x1 = 1

Cc1ccccc1 [toluene] + CCC(=O)c1ccccc1
mass density [kg/m3]
Conditions	298.15 K	308.15 K	318.15 K	328.15 K
100 kPa	862.1	853	843.8	834.5
2130 kPa	863.6	854.5	845.6	836.5
4150 kPa	865.2	856.2	847.3	838.3
6180 kPa	866.7	857.8	849	840.1
8210 kPa	868.2	859.3	850.6	841.8
10230 kPa	869.6	860.9	852.3	843.5
11250 kPa	870.4	861.7	853.1	844.4
12260 kPa	871.1	862.4	853.9	845.2
14290 kPa	872.5	863.9	855.4	846.9
16310 kPa	873.9	865.4	857	848.6
18340 kPa	875.3	866.8	858.5	850.1
20370 kPa	876.7	868.2	860	851.7
22390 kPa	878	869.6	861.5	853.3
24420 kPa	879.3	871	862.9	854.8
26450 kPa	880.6	872.4	864.4	856.3
28470 kPa	881.9	873.8	865.8	857.8
29490 kPa	882.5	874.4	866.5	858.5
30500 kPa	883.2	875	867.2	859.3
32530 kPa	884.4	876.3	868.5	860.7
34550 kPa	885.6	877.6	869.9	862.1
36580 kPa	886.8	878.9	871.2	863.5
38600 kPa	888	880.1	872.5	864.9
39620 kPa	888.6	880.7	873.2	865.5
